Data taken from patent publication US20140000882A1, “PETROLEUM RECOVERY PROCESS AND SYSTEM” (Shell Oil Company, priority 2012, published 2014).

Assay: Oil recovery from formation core by brine displacement followed by DMS displacement
Details: after waterflooding with brine
Procedure: Incremental recovery of oil from a formation core using an oil recovery formulation consisting of dimethyl sulfide following oil recovery from the core by water-flooding was measured to evaluate the effectiveness of DMS as a tertiary oil recovery agent.
Two 5.02 cm long Berea sandstone cores with a core diameter of 3.78 cm and a permeability between 925 and 1325 mD were saturated with a brine having a composition as set forth in Table 7.
After saturation of the cores with brine, the brine was displaced by a Middle Eastern Asphaltic crude oil having the characteristics as set forth above in Table 3 to saturate the cores with oil.
Oil was recovered from each oil saturated core by the addition of brine to the core under pressure and by subsequent addition of DMS to the core under pressure. Each core was treated as follows to determine the amount of oil recovered from the core by addition of brine followed by addition of DMS. Oil was initially displaced from the core by addition of brine to the core under pressure. A confining pressure of 1 MPa was applied to the core during addition of the brine, and the flow rate of brine to the core was set at 0.05 ml/min. The core was maintained at a temperature of 50° C. during displacement of oil from the core with brine. […]

CSC [Dimethyl Sulfide, dimethyl sulfide]
oil remaining in the core after the waterflood recovered: approximately 60%
